Drawing on patent US6949536B2, “Sulfonylbenzene compounds as anti-inflammatory/analgesic agents” (Pfizer, Inc., priority 1998, dated 2005), this text covers melting point for 33 compounds.

Structures can show the parent of a compound that is named as a salt.

The term melting point denotes the temperature, or range, at which the solid turns liquid. Compound `CC1(C)OC(=O)C(c2ccc(-c3cscn3)cc2)=C1c1ccc(S(C)(=O)=O)cc1` [Example 166, 5,5-Dimethyl-4-[4-(methylsulfonyl)phenyl]-3-[4-(1,3-thiazol-4-yl)phenyl]-2(5H)-furanone] registered a melting point of 215.8 °C.

Take `Cc1cc(-c2nc(C(F)(F)F)cn2-c2ccc(S(C)(=O)=O)c(F)c2)ccc1-c1cscn1` [Example 178, 1-[3-Fluoro-4-(methylsulfonyl)phenyl]-2-[3-methyl-4-(4-thiazolyl)phenyl]-4-trifluoromethyl-1H-imidazole]: the melting point was 197 to 198 °C.

Regarding `CNC(=O)c1cc(-c2ccc(-c3ccco3)cc2)n(-c2ccc(S(C)(=O)=O)c(F)c2)n1` [Example 131, N-Methyl-1-[3-fluoro-4-(methylsulfonyl)phenyl]-5-[4-(2-furyl)phenyl]-1H-pyrazole-3-carboxamide], the melting point was in the range of 196 to 198 °C.

With `CS(=O)(=O)c1ccc(-n2ncc(C#N)c2-c2ccc(-c3ccco3)cc2)cc1F` [Example 163, 4-Cyano-1-[3-fluoro-4-(methylsulfonyl)phenyl]-5-[4-(2-furyl)phenyl]-1H-pyrazole], the melting point was 153 to 157 °C.

In the case of `CS(=O)(=O)c1ccc(-n2nccc2-c2ccc(-c3ccco3)cc2)cc1F` [Example 162, 1-[3-Fluoro-4-(methylsulfonyl)phenyl]-5-[4-(2-furyl)phenyl]-1H-pyrazole], the melting point lay within 155 to 156 °C.

In turn, `Cc1cc(-c2cc(C(F)(F)F)nn2-c2ccc(S(N)(=O)=O)cc2)ccc1-c1cocn1` (as salt: hydrochloride) [Example 116, 4-[5-[3-Methyl-4-(1,3-oxazol-4-yl)phenyl]-3-(trifluoromethyl)-1H-pyrazol-1-yl]benzenesulfonamide] returned a melting point of 112 to 114 °C.

Regarding `Cc1cc(-n2c(C)ccc2-c2ccc(S(C)(=O)=O)cc2)ccc1-c1ccco1` [Example 40, 1-[4-(2-Furyl)-3-methylphenyl]-2-methyl-5-[4-(methylsulfonyl)phenyl]-1H-pyrrole], the melting point fell in the range of 160 to 162 °C.

In the case of `Cc1nc(-c2ccc(-c3cc(C(F)(F)F)nn3-c3ccc(S(C)(=O)=O)c(F)c3)cc2)cs1` [Example 102, 4-{4-[1-[3-Fluoro-4-(methylsulfonyl)phenyl]-3-(trifluoromethyl)-1H-pyrazol-5-yl]phenyl}-2-methyl-1,3-thiazole], the melting point was 139 to 141 °C.

On to `NS(=O)(=O)c1ccc(-n2nc(C(F)(F)F)cc2-c2ccc(-c3cscn3)c(F)c2)cc1F` (as salt: hydrochloride) [Example 114, 2-Fluoro-4-[5-[3-fluoro-4-(1,3-thiazol-4-yl)phenyl]-3-(trifluoromethyl)-1H-pyrazol-1-yl]benzenesulfonamide], for which the melting point is 196 to 198 °C.

Compound `CS(=O)(=O)c1ccc(-n2nc(C(F)(F)F)cc2-c2ccc(-c3ccoc3)cc2)cc1` [Example 20, 1-[4-(Methylsulfonyl)phenyl]-5-[4-(3-furyl)phenyl]-3-trifluoromethyl-1H-pyrazole] showed a melting point of 165 to 166 °C.

`NS(=O)(=O)c1ccc(-n2nc(C(F)(F)F)cc2-c2ccc(-c3cocn3)cc2)cc1` (as salt: hydrochloride) [Example 118, 4-[5-[4-(1,3-Oxazol-4-yl)phenyl]-3-(trifluoromethyl)-1H-pyrazol-1-yl]benzenesulfonamide] returned a melting point of 170 to 172 °C.

In the case of `Cc1ccc(-c2ccc(S(C)(=O)=O)c(F)c2)n1-c1ccc(-c2cscn2)cc1` [Example 151, 5-[3-Fluoro-4-(methylsulfonyl)phenyl]-2-methyl-1-[4-(4-thiazolyl)phenyl]-1H-pyrrole], the melting point worked out at 215 °C.

With `Cc1cc(-c2noc(C)c2-c2ccc(S(N)(=O)=O)c(F)c2)ccc1-c1cscn1` [Example 188, 2-Fluoro-4-[5-methyl-3-[3-methyl-4-(1,3-thiazol-4-yl)phenyl]-4-isoxazolyl]benzenesulfonamide], the melting point fell in the range of 114 to 116 °C.

Consider `COc1cc(-n2nc(C(F)(F)F)cc2-c2ccc(-c3ccco3)cc2)ccc1S(C)(=O)=O` (as salt: hydrochloride) [Example 136, 5-[4-(2-Furyl)phenyl]-1-[3-methoxy-4-(methylsulfonyl)phenyl]-3-trifluoromethyl-1H-pyrazole], for which the melting point was 138.9 °C.

As to `CC(=O)Nc1cnn(-c2ccc(S(C)(=O)=O)c(F)c2)c1-c1ccc(-c2cscn2)cc1` [Example 164, N-[1-[3-Fluoro-4-(methylsulfonyl)phenyl]-5-[4-(1,3-thiazol-4-yl)phenyl]-1H-pyrazol-4-yl]acetamide], the melting point is 225.2 °C.

Regarding `CS(=O)(=O)c1ccc(-n2cc(C(F)(F)F)nc2-c2ccc(-c3cccs3)cc2)cc1` [Example 52, 1-[4-(Methylsulfonyl)phenyl]-2-[4-(2-thienyl)phenyl]-4-(trifluoromethyl)-1H-imidazole], the melting point lay within 95 to 97 °C.

Take `Cc1cc(-c2cc(C(F)(F)F)nn2-c2ccc(S(N)(=O)=O)c(F)c2)ccc1-c1ccco1` [Example 139, 2-Fluoro-4-[5-[4-(2-furyl)-3-methylphenyl]-3-(trifluoromethyl)-1H-pyrazol-1-yl]benzenesulfonamide]: the melting point is 78 to 80 °C.

As to `NS(=O)(=O)c1ccc(-n2nc(C(F)(F)F)cc2-c2ccc(-c3ccco3)cc2)cc1Cl` (as salt: hydrochloride) [Example 144, 2-Chloro-4-[5-[4-(2-furyl)phenyl]-3-(trifluoromethyl)-1H-pyrazol-1-yl]benzenesulfonamide], the melting point was determined as 192.6 °C.

In turn, `CS(=O)(=O)c1ccc(-n2nc(C(F)(F)F)cc2-c2ccc(-c3cscn3)c(Cl)c2)cc1` (as salt: hydrochloride) [Example 119, 4-{2-Chloro-4-[1-[4-(methylsulfonyl)phenyl]-3-(trifluoromethyl)-1H-pyrazol-5-yl]phenyl}-1,3-thiazole] had a melting point of 128 to 130 °C.

`CS(=O)(=O)c1ccc(-n2nc(C(F)(F)F)cc2-c2ccc(-c3cncs3)cc2)cc1` [Example 24, 1-[4-(Methylsulfonyl)phenyl]-5-[4-(5-thiazolyl)phenyl]-3-trifluoromethyl-1H-pyrazole]: the melting point was in the range of 169 to 170 °C.

The compound `Cc1cc(-n2nc(C(F)(F)F)cc2-c2ccc(-c3ccco3)cc2)ccc1S(N)(=O)=O` (as salt: hydrochloride) [Example 143, 4-[5-[4-(2-Furyl)phenyl]-3-(trifluoromethyl)-1H-pyrazol-1-yl]-2-methylbenzenesulfonamide] registered a melting point of 137.4 °C.

With `Cc1onc(-c2ccc(-c3cscn3)cc2)c1-c1ccc(S(C)(=O)=O)c(F)c1` [Example 168, 4-[3-Fluoro-4-(methylsulfonyl)phenyl]-5-methyl-3-[4-(1,3-thiazol-4-yl)phenyl]isoxazole], the melting point is 130 °C.

Consider `Cc1cc(-n2nc(C(F)(F)F)cc2-c2ccc(-c3cscn3)cc2)ccc1S(C)(=O)=O` (as salt: hydrochloride) [Example 101, 4-{4-[1-[3-Methyl-4-(methylsulfonyl)phenyl]-3-(trifluoromethyl)-1H-pyrazol-5-yl]phenyl}-1,3-thiazole], for which the melting point was 147 to 149 °C.

Compound `Cc1noc(-c2ccc(-c3cscn3)cc2)c1-c1ccc(S(N)(=O)=O)cc1` [Example 190, 4-[3-Methyl-5-[4-(1,3-thiazol-4-yl)phenyl]-4-isoxazolyl]benzenesulfonamide] came in with a melting point of 236 °C.

`Cc1nc(-c2ccc(-c3cscn3)cc2)c(-c2ccc(S(C)(=O)=O)c(F)c2)o1` [Example 169, 5-[3-Fluoro-4-(methylsulfonyl)phenyl]-2-methyl-4-[4-(1,3-thiazol-4-yl)phenyl]-1,3-oxazole]: the melting point was in the range of 196 to 197 °C.

For the compound `Cc1cc(-c2cc(C(F)F)nn2-c2ccc(S(C)(=O)=O)c(F)c2)ccc1-c1cscn1` [Example 194, 4-[4-[3-(Difluoromethyl)-1-[3-Fluoro-4-(methylsulfonyl)phenyl]-1H-pyrazol-5-yl]-2-methylphenyl]-1,3-thiazole], the melting point was 122.9 °C.

As for `NS(=O)(=O)c1ccc(C2=C(c3ccc(-c4cscn4)cc3)C(=O)OC2)cc1F` [Example 167, 2-Fluoro-4-[5-oxo-4-[4-(1,3-thiazol-4-yl)phenyl]-2,5-dihydro-3-furanyl]benzenesulfonamide], the melting point was 194.2 °C.

Regarding `NS(=O)(=O)c1ccc(-n2nc(C(F)(F)F)cc2-c2ccc(-c3cscn3)c(Cl)c2)cc1F` (as salt: hydrochloride) [Example 122, 2-Fluoro-4-[5-[3-chloro-4-(1,3-thiazol-4-yl)phenyl]-3-(trifluoromethyl)-1H-pyrazol-1-yl]benzenesulfonamide], the melting point lay in the range of 173 to 175 °C.

`Cc1cc(-n2c(C)ccc2-c2ccc(S(C)(=O)=O)cc2)ccc1-c1ccoc1` [Example 39, 1-[4-(3-Furyl)-3-methylphenyl]-2-methyl-5-[4-(methylsulfonyl)phenyl]-1H-pyrrole] showed a melting point of 69 to 75 °C.

In the case of `CS(=O)(=O)c1ccc(-n2nc(C(N)=O)cc2-c2ccc(-c3ccco3)cc2)cc1F` [Example 132, 1-[3-Fluoro-4-(methylsulfonyl)phenyl]-5-[4-(2-furyl)phenyl]-1H-pyrazole-3-carboxamide], the melting point was in the range of 239 to 240 °C.

For `CS(=O)(=O)c1ccc(-n2nc(C(F)(F)F)cc2-c2ccc(-c3cscn3)c(F)c2)cc1` (as salt: hydrochloride) [Example 124, 4-{2-Fluoro-4-[1-[4-(methylsulfonyl)phenyl]-3-(trifluoromethyl)-1H-pyrazol-5-yl]phenyl}-1,3-thiazole], the melting point lay in the range of 176 to 178 °C.

For `NS(=O)(=O)c1ccc(-n2nc(C(F)(F)F)cc2-c2ccc(-c3ccco3)cc2)cc1F` (as salt: hydrochloride) [Example 137, 2-Fluoro-4-[5-[4-(2-furyl)phenyl]-3-(trifluoromethyl)-1H-pyrazol-1-yl]benzenesulfonamide], the melting point was 151 °C.

Regarding `NS(=O)(=O)c1ccc(-n2nc(C(F)(F)F)cc2-c2ccc(-c3cscn3)cc2)cc1F` (as salt: hydrochloride) [Example 103, 2-Fluoro-4-[5-[4-(1,3-thiazol-4-yl)phenyl]-3-(trifluoromethyl)-1H-pyrazol-1-yl]benzenesulfonamide], the melting point is 168 to 170 °C.
